# Experimental data as given in ChEMBL document CHEMBL1201862, “PubChem BioAssay data set” (2004).
#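 Each compound was tested at five concentrations against cells in 96-well plates for 48 hours. GI50 = concentration required for 50% inhibition of growth.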 Active and inactive are the calls of the source. No stated cut-off is given here; in the data, active = GI50 up to about 1.1 µM and inactive = higher.
# Legend:
# Experiment in all cases: DTP human tumour cell line panel, 48 h
# A549 = system: A549
# COLO 205 = system: COLO 205
# EKVX = system: EKVX
# HCT-15 = system: HCT-15
# HOP-62 = system: HOP-62
# HT-29 = system: HT-29
# KM12 = system: KM12
# LOX IMVI = system: LOX IMVI
# M14 = system: M14
# NCI-H522 = system: NCI-H522
# OVCAR-3 = system: OVCAR-3
# OVCAR-4 = system: OVCAR-4
# RXF 393 = system: RXF 393
# SF-295 = system: SF-295
# SK-MEL-28 = system: SK-MEL-28
# SN12C = system: SN12C
# SNB-19 = system: SNB-19
# SNB-75 = system: SNB-75
# SW-620 = system: SW-620
# UO-31 = system: UO-31
Structure (SMILES),GI50 (A549),GI50 (COLO 205),GI50 (EKVX),GI50 (HCT-15) [µM],GI50 (HOP-62),GI50 (HT-29),GI50 (KM12),GI50 (LOX IMVI),GI50 (M14),GI50 (NCI-H522),GI50 (OVCAR-3),GI50 (OVCAR-4),GI50 (RXF 393),GI50 (SF-295),GI50 (SK-MEL-28),GI50 (SN12C),GI50 (SNB-19),GI50 (SNB-75),GI50 (SW-620),GI50 (UO-31)
C=C1c2nc3ccccc3n2C=C(c2ccccc2)N1c1ccc([N+](=O)[O-])cc1,2.31 µM (inactive),6.52 µM (inactive),4.85 µM (inactive),5.75,4.92 µM (inactive),3.47 µM (inactive),4.14 µM (inactive),5.36 µM (inactive),8.57 µM (inactive),3.67 µM (inactive),7.06 µM (inactive),0.324 µM (active),3.01 µM (inactive),3.37 µM (inactive),24.6 µM (inactive),7.89 µM (inactive),5.65 µM (inactive),3.15 µM (inactive),14.4 µM (inactive),3.3 µM (inactive)
CCN1C(=O)c2cc(OC)c(OC)cc2C(=O)C12OC(=O)c1cc3c(cc12)OCO3 (stereo unspecified),36.9 µM (inactive),> 100 µM (inactive),> 100 µM (inactive),> 100,49.4 µM (inactive),87.3 µM (inactive),> 100 µM (inactive),40.7 µM (inactive),97.3 µM (inactive),> 100 µM (inactive),63.5 µM (inactive),69.8 µM (inactive),25.8 µM (inactive),68.7 µM (inactive),> 100 µM (inactive),61.5 µM (inactive),39.5 µM (inactive),23 µM (inactive),> 100 µM (inactive),> 100 µM (inactive)
C=C1C(=O)O[C@@H]2[C@H]3O[C@]3(C)CCC=C(C)CC[C@@H]12,94.6 µM (inactive),14.5 µM (inactive),17.4 µM (inactive),14.7,49.1 µM (inactive),23.6 µM (inactive),16.8 µM (inactive),8.24 µM (inactive),,5.47 µM (inactive),18.4 µM (inactive),21.6 µM (inactive),12.2 µM (inactive),24.8 µM (inactive),21.1 µM (inactive),22.9 µM (inactive),63.7 µM (inactive),48.4 µM (inactive),14.8 µM (inactive),42 µM (inactive)
Nc1ncc2c(n1)-c1ccccc1OC2N1CCCC1 (stereo unspecified),> 100 µM (inactive),> 100 µM (inactive),41.5 µM (inactive),> 100,> 100 µM (inactive),> 100 µM (inactive),> 100 µM (inactive),> 100 µM (inactive),> 100 µM (inactive),> 100 µM (inactive),> 100 µM (inactive),> 100 µM (inactive),94.8 µM (inactive),> 100 µM (inactive),> 100 µM (inactive),> 100 µM (inactive),> 100 µM (inactive),29 µM (inactive),> 100 µM (inactive),92 µM (inactive)
COc1cccc(/C=C/C(=O)N2CC(CCl)c3c2cc(N)c2ccccc32)c1 (stereo unspecified),0.00153 µM (active),0.0146 µM (active),0.0142 µM (active),0.034,< 0.01 µM (active),< 0.01 µM (active),0.00434 µM (active),0.000548 µM (active),0.00957 µM (active),0.00045 µM (active),< 0.01 µM (active),0.00344 µM (active),0.00132 µM (active),0.00114 µM (active),0.0114 µM (active),0.00357 µM (active),0.0059 µM (active),0.00237 µM (active),0.00194 µM (active),0.00171 µM (active)
CCCn1cc2c3c(cccc31)C1C=C(C)CN(C)C1C2 (stereo unspecified),34.5 µM (inactive),9.98 µM (inactive),18 µM (inactive),17.4,31.7 µM (inactive),12.9 µM (inactive),24.2 µM (inactive),13.6 µM (inactive),,20.7 µM (inactive),20.4 µM (inactive),10.1 µM (inactive),18.5 µM (inactive),23.8 µM (inactive),18.1 µM (inactive),27.5 µM (inactive),27 µM (inactive),12 µM (inactive),23.4 µM (inactive),9.71 µM (inactive)
N=C(NNS(=O)(=O)c1ccccc1)Oc1ccc(Cl)cc1,> 100 µM (inactive),35.4 µM (inactive),> 100 µM (inactive),33.1,> 100 µM (inactive),> 100 µM (inactive),> 100 µM (inactive),48.3 µM (inactive),> 100 µM (inactive),> 100 µM (inactive),78.5 µM (inactive),> 100 µM (inactive),11.3 µM (inactive),> 100 µM (inactive),> 100 µM (inactive),> 100 µM (inactive),> 100 µM (inactive),> 100 µM (inactive),5.75 µM (inactive),> 100 µM (inactive)
O=C(Nc1cccc(C(=O)NCCCO)c1)/C(=C/c1ccccc1)NC(=O)c1ccccc1,> 100 µM (inactive),> 100 µM (inactive),> 100 µM (inactive),> 100,> 100 µM (inactive),> 100 µM (inactive),> 100 µM (inactive),> 100 µM (inactive),> 100 µM (inactive),> 100 µM (inactive),> 100 µM (inactive),> 100 µM (inactive),> 100 µM (inactive),> 100 µM (inactive),> 100 µM (inactive),> 100 µM (inactive),> 100 µM (inactive),> 100 µM (inactive),> 100 µM (inactive),> 100 µM (inactive)
Cc1cc2oc3c(ccc(=O)n3C)c(=O)c2c(C)c1Cl,45 µM (inactive),73.5 µM (inactive),52 µM (inactive),77.6,49.7 µM (inactive),38.3 µM (inactive),91.4 µM (inactive),49.9 µM (inactive),28.5 µM (inactive),62.7 µM (inactive),42.3 µM (inactive),> 100 µM (inactive),31.2 µM (inactive),54.8 µM (inactive),26.5 µM (inactive),48.6 µM (inactive),71.1 µM (inactive),> 100 µM (inactive),82.6 µM (inactive),73.5 µM (inactive)
CN(C)/N=N/c1ccc([N+](=O)[O-])cc1C(N)=O,> 100 µM (inactive),> 100 µM (inactive),> 71.3 µM (inactive),> 100,> 90.4 µM (inactive),> 100 µM (inactive),> 100 µM (inactive),> 100 µM (inactive),,> 92.7 µM (inactive),> 100 µM (inactive),> 100 µM (inactive),> 100 µM (inactive),> 100 µM (inactive),> 100 µM (inactive),> 100 µM (inactive),> 66.5 µM (inactive),> 100 µM (inactive),> 100 µM (inactive),> 82 µM (inactive)
O=C(O)/C(=C\c1ccncc1)c1cccc2ccccc12,90.6 µM (inactive),> 100 µM (inactive),> 100 µM (inactive),> 100,> 100 µM (inactive),> 100 µM (inactive),> 100 µM (inactive),> 100 µM (inactive),> 100 µM (inactive),> 100 µM (inactive),> 100 µM (inactive),> 100 µM (inactive),> 100 µM (inactive),> 100 µM (inactive),> 100 µM (inactive),44.1 µM (inactive),> 100 µM (inactive),> 100 µM (inactive),> 100 µM (inactive),
